# Where two headings read alike, the source gives them in different places.
# Legend:
# [1] = test system: MCF7 cells; assay: MCF7 estrogen-dependent proliferation assay (cell counting); type: cell-based; settings: for MCF7 Fold stimulation: estrogen-dependent proliferation
# Experimental: MCF7 cells, an estrogen dependent breast carcinoma cell line, were maintained in DMEM/F12 (1:1) containing 10% (v/v) fetal bovine serum (Hyclone Laboratories, Logan, Utah) and 1×antibiotic-antimytotic. MCF7 cells were used between passage 60 and passage 90. For MCF7 estrogen-dependent proliferation assay the cells were seeded in complete media at 20–30,000 cells/well in a 24 well plate. After allowing the cells to adhere overnight the seeding density was determined by cell counts. Cells were washed with PBS (37° C.) and starved by placing them in IMEM-phenol red free media containing 2% charcoal-dextran fetal bovine-stripped serum (Georgetown University) and 1×antibiotic-antimitotic. After 3 days of starvation, cells were treated with or without increasing concentrations of compounds, replacing the media every 2–3 days and counted after 8 or 10 days of treatment. Proliferation was measured by cell counting using a Coulter Z1 cell counter (Coulter Corporation, Hialeah, Fla.). Each condition was done in triplicate.
# [2] = test system: HUVEC cells; assay: HUVEC in vitro cellular proliferation inhibition (BrdU, bFGF); type: cell-based, human
# Experimental: HUVEC cells were grown in EGM (Clonetics).
# HUVEC cells were plated at 5000 cells/ml in 96-well plates. After allowing the cells to attach overnight, the cells were washed with PBS and incubated in the absence of growth factor for 24 h (EBM, 2% FCS, Clonetics). Cells were treated with increasing concentrations of drug in EBM containing 2% FCS and 10 ng/ml bFGF for 48 h at 37° C. Drug preparation, volumes added and BrdU proliferation assay were performed as indicated above.
# (§1) 2-Methoxyestradiol is a potent anti-angiogenic and anti-tumor agent. In order to assess the biological activity of modifications at position 16, the anti-proliferative activity of these analogs was evaluated on human umbilical vein endothelial cells (HUVEC) and breast carcinoma cell line, MDA-MB-231 as models for the anti-angiogenic and anti-tumor activity, respectively.
# [3] = test system: MDA-MB-231 human breast carcinoma cells; assay: MDA-MB-231 in vitro cellular proliferation inhibition (BrdU); type: cell-based
# Experimental: MDA-MB-231 human breast carcinoma cells were grown in DMEM containing 10% FCS (Hyclone Laboratories, Logan Utah) and supplemented with 2 mM L-Glutamine, 100 units/ml penicillin, 100 μg/ml streptomycin (Irvine Scientific, Santa Anna, Calif.).
# MDA-MB-231 cells were plated at 5000 cells/ml in 96-well plates. After allowing the cells to attach overnight, the appropriate fresh media were applied containing differing concentrations of 2-ME2 or derivatives thereof, as described below. Drug was dissolved in DMSO (Sigma, St. Louis, Mo.) and added to the wells in a volume of 200 μl. Cells were incubated for two days at 37° C.; at 32 h BrdU was added. BrdU cell proliferation assay (a nucleotide analogue that is incorporated into DNA) was performed as described by the manufacturer (Roche). Each condition was prepared in triplicate and the experiments were carried out a minimum of two times. Results presented are means +/− SE.
# [4] = test system: chick embryo chorioallantoic membrane; assay: chick embryo chorioallantoic membrane (CAM) assay; type: in vivo; settings: 100 μg disk, after 48 hours
# Experimental: Anti-proliferative activity is evaluated in situ by testing the ability of an improved estradiol derivative to inhibit the proliferation of new blood vessel cells (angiogenesis). A suitable assay is the chick embryo chorioallantoic membrane (CAM) assay described by Crum et al. Science 230:1375 (1985). See also, U.S. Pat. No. 5,001,116, hereby incorporated by reference, which describes the CAM assay. Briefly, fertilized chick embryos are removed from their shell on day 3 or 4, and a methylcellulose disc containing the drug is implanted on the chorioallantoic membrane. The embryos are examined 48 hours later and, if a clear avascular zone appears around the methylcellulose disc, the diameter of that zone is measured.
# [5] = test system: HUVEC and MDA-MB-231 cells; assay: in vitro antiproliferative screening, endothelial versus tumor cells; type: cell-based, human; settings: for difference between inhibition of tumor cells and of endothelial cell proliferation (selectivity): MDA-MB-231 versus HUVEC; for antiproliferative activity in vitro (in words): cell line not specified
# Source text: Compounds with no chain or with variable methylene chain lengths (1–4) were synthesized by replacing hydroxyl group at position-17 of D-ring of 2ME2 to block estrone formation or glucuronation. Similarly several analogs of 17-deoxyestrone with modification at position-2 were synthesized to block the both glucuronation and hydrolysis of the methoxy group to the hydroxyl. For these analogs data will be presented on the synthesis and preliminary in vitro screening in human umbilical vein endothelial cells (HUVEC) and breast cancer tumor MDA-MB-231 cells for antiproliferative activity, and in MCF-7 tumor cancer cells for estrogenic activity.
# as §1, with “In” for “2-Methoxyestradiol is a potent anti-angiogenic and anti-tumor agent. In”
# [6] = test system: vascular endothelial cell proliferation; settings: cited from earlier work
# [7] = Table 4, dehydrogenated/substituted 2ME2 derivatives
# [8] = Table 4, dehydrogenated/substituted 2ME2 derivatives, read-out: MDA-MB-231 (IC50 μM)
# [9] = Homo sapiens, HUVEC, Table 2, 2 substituted E2 derivatives
# [10] = Homo sapiens, MDA-MB-231, Table 2, 2 substituted E2 derivatives, read-out: MDA-MB-231 (IC50 μM)
compound,measurement,setting,value
"COc1cc2c(cc1O)CC[C@@H]1[C@@H]2CC[C@]2(C)[C@@H](O)CC[C@@H]12 [2-Methoxyestradiol, reference compound]","estrogenic activity, proliferation in estrogen dependant MCF-7 cells (in words)",[1],not estrogenic over a wide range of concentrations
same,MCF7 Fold stimulation,[1]; Table 1,1.75
same,MCF7 Fold stimulation,[1]; Table 2,1.75
same,MCF7 Fold stimulation,[1]; Table 3,1.75
same,IC50,"[2]; Table 1, 17 substituted 2ME2 derivatives",0.66 ± 0.02 µM
same,IC50,"[2]; Table 2, 2 substituted E2 derivatives",0.66 µM
same,IC50,"[2]; Table 3, 16 substituted 2ME2 derivatives",0.66 ± 0.02 µM
same,IC50,[2]; [7],0.66 ± 0.02 µM
same,IC50,"[3]; Table 1, 17 substituted 2ME2 derivatives, means +/− SE, read-out: MDA-MB-231 (IC50 μM)",0.5 ± 0.05 µM
same,IC50,"[3]; Table 2, 2 substituted E2 derivatives, read-out: MDA-MB-231 (IC50 μM)",0.5 µM
same,IC50,"[3]; Table 3, 16 substituted 2ME2 derivatives, read-out: MDA-MB-231 (IC50 μM)",0.5 ± 0.05 µM
same,IC50,[3]; [8],0.5 ± 0.05 µM
same,inhibition of cell mitosis and growth of new blood vessels,[4],inhibit cell mitosis and the growth of new blood vessels
"C[C@]12CC[C@@H]3c4cc(CO)c(O)cc4CC[C@H]3[C@@H]1CC[C@@H]2O [Table 2, Entry 4, 2-(hydroxymethyl)estra-1,3,5(10)-triene-3,17β-diol]",activity in breast tumor MDA-MB-231 cells (in words),[3],poor activity
"CCC[C@@H]1C[C@H]2[C@@H]3CCc4cc(O)c(OC)cc4[C@H]3CC[C@]2(C)[C@H]1O [Table 3, Entry 7, 2-methoxy-16α-propaneestra-1,3,5(10)-triene-3,17β-diol]",difference between inhibition of tumor cells and of endothelial cell proliferation (selectivity),[5],more than ten-fold less active
same,antiproliferative activity in HUVEC / endothelial cells (in words),[2],good activity
"CC(=O)c1cc2c(cc1O)CC[C@@H]1[C@@H]2CC[C@]2(C)[C@@H](O)CC[C@@H]12 [Table 2, Entry 2, 2-acetylestra-1,3,5(10)-triene-3,17β-diol]",antiproliferative activity in HUVEC / endothelial cells (in words),[2],poor activity
same,activity in breast tumor MDA-MB-231 cells (in words),[3],good activity
"C[C@]12CC[C@@H]3c4cc(C=O)c(O)cc4CC[C@H]3[C@@H]1CC[C@@H]2O [Table 2, Entry 3, 2-formylestra-1,3,5(10)-triene-3,17β-diol]",activity in breast tumor MDA-MB-231 cells (in words),[3],poor activity
"COc1cc2c(cc1O)CC[C@@H]1[C@@H]2CC[C@]2(C)[C@@H](O)[C@@H](C)C[C@@H]12 [Table 3, Entry 3, 2-methoxy-16β-methylestra-1,3,5(10)-triene-3,17β-diol]",drop in activity in MDA-MB-231 compared to 2-methoxyestradiol,[3],about 5 fold
"COc1cc2c(cc1O)CC[C@@H]1[C@@H]2CC[C@]2(C)CCC[C@@H]12 [Table 1, Entry 3, 2-methoxyestra-1,3,5(10)-triene-3-ol]",antiproliferative activity in vitro (in words),[5]; listed as 2-Methoxy-17-deoxyestrone,equal or better antiproliferative activity than 2ME2
same,antiproliferative activity in vitro (in words),[5]; listed as dehydroxy derivative,in vitro profile analogous to 2-methoxyestradiol
"COc1cc2c(cc1O)CC[C@@H]1[C@@H]2CC[C@]2(C)[C@@H](C)CC[C@@H]12 [Table 1, Entry 8, 2-methoxy-17β-methylestra-1,3,5(10)-triene-3-ol]",antiproliferative activity in vitro (in words),[5],equal or better antiproliferative activity than 2ME2
"C[C@]12CC[C@@H]3c4cc(N=[N+]=[N-])c(O)cc4CC[C@H]3[C@@H]1CC[C@@H]2O [Table 2, Entry 17, 2-Azidoestra1,3,5(10)-triene-3,17β-diol]",antiproliferative activity in vitro (in words),[5],retained considerable antiproliferative activity
same,IC50,"[3]; Homo sapiens, MDA-MB-231, read-out: MDA-MB-231 (IC50 μM)",13.3 µM
"CCC1C[C@H]2[C@@H]3CCc4cc(O)c(OC)cc4[C@H]3CC[C@]2(C)[C@H]1O (stereo partly drawn) [Table 3, Entry 4, 2-methoxy-16-ethylestra-1,3,5,(10)-triene-3,17β-diol]",inhibition of HUVEC cell proliferation compared to 2-methoxyestradiol (in words),[2],about equipotent to 2-methoxyestradiol
same,drop in activity in MDA-MB-231 compared to 2-methoxyestradiol,[3],~3 fold
"16β-(hydroxymethyl)estra-1,3,5(10)-triene-3,17β-diol [Table 3, Entry 6]",difference between inhibition of tumor cells and of endothelial cell proliferation (selectivity),[5],10 fold
"CCOc1cc2c(cc1O)CC[C@@H]1[C@@H]2CC[C@]2(C)[C@@H](O)CC[C@@H]12 [Table 2, Entry 18, 2-ethoxyestra-1,3,5(10)-triene3,17β-diol]",IC50,[2]; [9],0.06 µM
same,IC50,[3]; [10],0.179 µM
"C[C@@]12CCC[C@H]1[C@@H]1CCc3cc(O)ccc3[C@H]1CC2 [Table 2, Entry 19, estra-1,3,5(10)-triene-3-ol]",IC50,[2]; [9],8.66 µM
same,IC50,[3]; [10],33.9 µM
CO[C@@H]1[C@H](OC(=O)NC(=O)CCl)CC[C@]2(CO2)[C@H]1[C@@]1(C)O[C@@H]1CC=C(C)C [AGM-1470],half-maximal inhibition of vascular endothelial cell proliferation at lower concentration than tumor cell proliferation,[6],4 logs
COc1cc2c(cc1OC(C)=O)CCC1C2CC[C@@]2(C)C1CC[C@@H]2OC(C)=O (stereo partly drawn) [Entry 6],IC50,"[2]; Homo sapiens, HUVEC, Table 1, 17 substituted 2ME2 derivatives",3.6 ± 2 µM
same,IC50,"[3]; Homo sapiens, MDA-MB-231, Table 1, 17 substituted 2ME2 derivatives, means +/− SE, read-out: MDA-MB-231 (IC50 μM)",0.59 ± 0.15 µM
"COc1cc2c(cc1O)CC[C@@H]1[C@@H]2CC[C@]2(C)[C@@H](O)[C@H](C)C[C@@H]12 [Table 3, Entry 2, 2-methoxy-16α-methylestra-1,3,5(10)-triene-3,17β-diol]",activity in MDA-MB-231 compared to 2-methoxyestradiol (in words),[3],better activity than 2-methoxyestradiol
"CC[C@H]1CC[C@H]2[C@@H]3CCc4cc(O)c(OC)cc4[C@H]3CC[C@]12C [Table 1, Entry 13, 2-methoxy-17β-ethylestra-1,3,5(10)-triene-3-ol]",antiproliferative activity in vitro (in words),[5],equal or better antiproliferative activity than 2ME2
"COc1cc2c(cc1O)CC[C@@H]1C2=CC[C@]2(C)[C@@H](O)CC[C@@H]12 [2-methoxy-estra-1,3,5(10)9(11)-tetraene-3,17β-diol]",IC50,[2]; [7],0.25 µM
same,IC50,[3]; [8],0.45 µM

# Source: patent US7135581B2, “Antiangiogenic agents” (Entremed, Inc., priority 2000, dated 2006)
